Data: PubChem BioAssay (NCI)
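Compound exposure: 48 hours, 5 concentrations, 96-well plates. The concentration for 50% growth inhibition is given as GI50. At the TGI there is no net growth.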

How the values were obtained:
Test in all cases: inhibition of tumour cell growth, NCI panel, 48 h
[1] = test system: HOP-62 NSCLC
[2] = test system: MCF7 breast
[3] = test system: M14 melanoma
[4] = test system: IGROV1 ovarian
[5] = test system: UO-31 renal
[6] = test system: DU-145 prostate
[7] = test system: HCT-15 colon
[8] = test system: CAKI-1 renal
[9] = test system: HOP-92 NSCLC
[10] = test system: SK-MEL-5 melanoma
[11] = test system: SK-MEL-2 melanoma
[12] = test system: OVCAR-4 ovarian
[13] = test system: SW-620 colon
[14] = test system: MDA-MB-435
[15] = test system: HCT-116 colon
[16] = test system: RPMI-8226 leukemia
[17] = test system: MOLT-4 leukemia
[18] = test system: CCRF-CEM leukemia
[19] = test system: U251 CNS
[20] = test system: KM12 colon
[21] = test system: SF-268 CNS
[22] = test system: HT29 colon
[23] = test system: COLO 205 colon
[24] = test system: HS 578T breast
[25] = test system: BT-549 breast
[26] = test system: MDA-N
[27] = test system: EKVX NSCLC
[28] = test system: OVCAR-3 ovarian
[29] = test system: UACC-257 melanoma
[30] = test system: SNB-75 CNS
[31] = test system: PC-3 prostate
[32] = test system: A498 renal
[33] = test system: RXF 393 renal
[34] = test system: NCI/ADR-RES ovarian
[35] = test system: SR leukemia
[36] = test system: NCI-H226 lung
[37] = test system: SF-539 CNS
[38] = test system: MALME-3M melanoma
[39] = test system: OVCAR-8 ovarian
[40] = test system: K-562 leukemia
[41] = test system: SK-OV-3 ovarian
[42] = test system: ACHN renal
[43] = test system: 786-0 renal
[44] = test system: SN12C renal
[45] = test system: HL-60(TB) leukemia
[46] = test system: OVCAR-5 ovarian
[47] = test system: TK-10 renal
[48] = test system: SK-MEL-28 melanoma
[49] = test system: SF-295 CNS
[50] = test system: NCI-H522 lung
[51] = test system: NCI-H23 lung
[52] = test system: A549 NSCLC
[53] = test system: SNB-19 CNS
[54] = test system: UACC-62 melanoma
[55] = test system: LOX IMVI melanoma
[56] = test system: MDA-MB-231 breast
[57] = test system: NCI-H460 lung
[58] = test system: T-47D breast
[59] = test system: HCC-2998 colon

## COc1ccc(C[N+](C)(C)N)cc1OC
[1]
  GI50: > 100 µM
  TGI: > 100 µM
[2]
  GI50: > 100 µM
  TGI: > 100 µM
[3]
  GI50: > 100 µM
  TGI: > 100 µM
[4]
  TGI: > 100 µM
[5]
  TGI: > 100 µM
[6]
  GI50: > 100 µM
  TGI: > 100 µM
[7]
  GI50: > 100 µM
  TGI: > 100 µM
[8]
  GI50: > 100 µM
  TGI: > 100 µM
[9]
  GI50: > 100 µM
  TGI: > 100 µM
[10]
  GI50: > 100 µM
  TGI: > 100 µM
[11]
  TGI: > 100 µM
[12]
  GI50: > 100 µM
  TGI: > 100 µM
[13]
  GI50: > 100 µM
  TGI: > 100 µM
[14]
  GI50: > 100 µM
  TGI: > 100 µM
[15]
  GI50: > 100 µM
  TGI: > 100 µM
[16]
  GI50: > 100 µM
  TGI: > 100 µM
[17]
  GI50: > 100 µM
  TGI: > 100 µM
[18]
  GI50: > 100 µM
  TGI: > 100 µM
[19]
  GI50: > 100 µM
  TGI: > 100 µM
[20]
  GI50: > 100 µM
  TGI: > 100 µM
[21]
  GI50: > 100 µM
  TGI: > 100 µM
[22]
  GI50: > 100 µM
  TGI: > 100 µM
[23]
  GI50: > 100 µM
  TGI: > 100 µM
[24]
  GI50: > 100 µM
  TGI: > 100 µM
[25]
  GI50: > 100 µM
  TGI: > 100 µM
[26]
  GI50: > 100 µM
  TGI: > 100 µM
[27]
  TGI: > 100 µM
[28]
  GI50: > 100 µM
  TGI: > 100 µM
[29]
  GI50: > 100 µM
  TGI: > 100 µM
[30]
  GI50: > 100 µM
  TGI: > 100 µM
[31]
  GI50: > 100 µM
  TGI: > 100 µM
[32]
  TGI: > 100 µM
[33]
  TGI: > 100 µM
[34]
  GI50: > 100 µM
  TGI: > 100 µM
[35]
  GI50: > 100 µM
  TGI: > 100 µM
[36]
  TGI: > 100 µM
[37]
  GI50: > 100 µM
  TGI: > 100 µM
[38]
  GI50: > 100 µM
  TGI: > 100 µM
[39]
  GI50: > 100 µM
  TGI: > 100 µM
[40]
  TGI: > 100 µM
[41]
  GI50: > 100 µM
  TGI: > 100 µM
[42]
  GI50: > 100 µM
  TGI: > 100 µM
[43]
  GI50: > 100 µM
  TGI: > 100 µM
[44]
  GI50: > 100 µM
  TGI: > 100 µM
[45]
  GI50: > 100 µM
  TGI: > 100 µM
[46]
  GI50: > 100 µM
  TGI: > 100 µM
[47]
  GI50: > 100 µM
  TGI: > 100 µM
[48]
  GI50: > 100 µM
  TGI: > 100 µM
[49]
  GI50: > 100 µM
  TGI: > 100 µM
[50]
  GI50: > 100 µM
  TGI: > 100 µM
[51]
  GI50: > 100 µM
  TGI: > 100 µM
[52]
  GI50: > 100 µM
  TGI: > 100 µM
[53]
  GI50: > 100 µM
  TGI: > 100 µM
[54]
  TGI: > 100 µM
[55]
  GI50: > 100 µM
  TGI: > 100 µM
[56]
  GI50: > 100 µM
  TGI: > 100 µM
[57]
  TGI: > 100 µM

## CSc1nnc(SC)nn1
[1]
  TGI: 29.1 µM
[2]
  TGI: 32.7 µM
[3]
  TGI: 28.9 µM
[4]
  TGI: 31 µM
[5]
  TGI: 29.5 µM
[6]
  TGI: 45.4 µM
[7]
  TGI: 35.2 µM
[8]
  TGI: 31.4 µM
[9]
  TGI: 14.8 µM
[10]
  TGI: 29.6 µM
[12]
  TGI: 32.5 µM
[13]
  TGI: 35.5 µM
[14]
  TGI: 32.4 µM
[15]
  TGI: 23.9 µM
[16]
  TGI: 32.7 µM
[17]
  TGI: 2.37 µM
[18]
  TGI: 4.53 µM
[19]
  TGI: 41.8 µM
[20]
  TGI: 30 µM
[21]
  TGI: 29.4 µM
[22]
  TGI: 36.5 µM
[23]
  TGI: 32.7 µM
[24]
  TGI: 77.1 µM
[25]
  TGI: 29.7 µM
[26]
  TGI: 30.1 µM
[27]
  TGI: 30.8 µM
[28]
  TGI: 31.6 µM
[29]
  TGI: 30.3 µM
[30]
  TGI: 31.2 µM
[31]
  TGI: 33.7 µM
[32]
  TGI: > 100 µM
[33]
  TGI: 30.3 µM
[34]
  TGI: 31.9 µM
[36]
  TGI: 96.5 µM
[37]
  TGI: 32.1 µM
[38]
  TGI: 27 µM
[39]
  TGI: 35.9 µM
[40]
  TGI: 27.4 µM
[41]
  TGI: 49 µM
[42]
  TGI: 30.5 µM
[43]
  TGI: 27.1 µM
[44]
  TGI: 39.7 µM
[58]
  TGI: > 100 µM
[45]
  TGI: 11.6 µM
[46]
  TGI: 33.6 µM
[47]
  TGI: 25.8 µM
[49]
  TGI: 33.9 µM
[50]
  TGI: 31.6 µM
[51]
  TGI: 49.4 µM
[52]
  TGI: 43.3 µM
[53]
  TGI: 43.3 µM
[54]
  TGI: 34 µM
[55]
  TGI: 38 µM
[56]
  TGI: 39.7 µM
[57]
  TGI: 32.9 µM

## Nc1nc(-c2ccccc2)cc(-c2ccc(OCc3ccccc3)cc2O)n1
[1]
  TGI: > 100 µM
[2]
  TGI: > 100 µM
[3]
  TGI: > 100 µM
[4]
  TGI: > 100 µM
[5]
  TGI: > 100 µM
[6]
  TGI: > 100 µM
[7]
  TGI: > 100 µM
[8]
  TGI: > 100 µM
[9]
  TGI: > 100 µM
[10]
  TGI: 35.5 µM
[11]
  TGI: > 100 µM
[12]
  TGI: > 100 µM
[13]
  TGI: > 100 µM
[14]
  TGI: > 100 µM
[59]
  TGI: > 100 µM
[15]
  TGI: > 100 µM
[16]
  TGI: 60.9 µM
[17]
  TGI: > 100 µM
[18]
  TGI: > 100 µM
[19]
  TGI: > 100 µM
[20]
  TGI: > 100 µM
[21]
  TGI: > 100 µM
[22]
  TGI: > 100 µM
[23]
  TGI: > 100 µM
[24]
  TGI: > 100 µM
[25]
  TGI: > 100 µM
[26]
  TGI: > 100 µM
[27]
  TGI: > 100 µM
[28]
  TGI: 89.1 µM
[29]
  TGI: > 100 µM
[30]
  TGI: > 100 µM
[31]
  TGI: > 100 µM
[32]
  TGI: > 100 µM
[33]
  TGI: 76.8 µM
[34]
  TGI: > 100 µM
[35]
  TGI: > 100 µM
[36]
  TGI: > 100 µM
[37]
  TGI: > 100 µM
[38]
  TGI: > 100 µM
[39]
  TGI: > 100 µM
[40]
  TGI: > 100 µM
[42]
  TGI: > 100 µM
[43]
  TGI: > 100 µM
[44]
  TGI: > 100 µM
[46]
  TGI: > 100 µM
[47]
  TGI: 91 µM
[48]
  TGI: > 100 µM
[49]
  TGI: > 100 µM
[50]
  TGI: 90.7 µM
[51]
  TGI: > 100 µM
[52]
  TGI: > 100 µM
[53]
  TGI: > 100 µM
[54]
  TGI: > 100 µM
[55]
  TGI: > 100 µM
[56]
  TGI: > 100 µM
[57]
  TGI: > 100 µM
